From US20160045482A1, “UREIDO-PYRAZOLE DERIVATIVES” (Respivert Limited, priority 2010, published 2016)
“Also recorded” adds a separate entry of the source. Like-named read-outs stand apart in the source and are kept apart here.

How the values were obtained:
HRV16 [1] = experiment: Assessment of HRV16 induced CPE in MRC5; format: cell-based, human rhinovirus 16; settings: Rhinovirus A
Protocol: The supernatants were aspirated and fresh media was added and the preparations were then incubated for 4 days. Where appropriate, cells were pre-incubated with the test compound or DMSO for 2 hr, and the compounds and DMSO added again after washout of the virus. Supernatants were aspirated and incubated with methylene blue solution (2% formaldehyde, 10% methanol and 0.175% Methylene Blue) for 2 hr at RT. After washing, 1% SDS was added to each well, and plates were shaken lightly for 1-2 hr prior to reading the absorbance at 660 nm. The percentage inhibition for each well was calculated. The IC50 value was calculated from the concentration-response curve generated from the serial dilutions of the test compound.

IL-8 [2] = experiment: IL-8 release activated by human rhinovirus in BEAS2B cells; format: cell-based; settings: for IL-8 production in response to inoculation using HRV-16: epithelial cells
Protocol: BEAS2B cells were infected with rhinovirus at an MOI of 5 and incubated for 2 hr at 33° C. with gentle shaking to enhance adsorption. Test compounds were added 2 hr before HRV infection and 2 hr after infection when residual extracellular HRV was washed out. The cells were then washed with PBS, fresh media was added and the cells were incubated for a further 72 hr. The supernatant was collected for assay of IL-8 concentrations using the Duoset ELISA development kit (R&D Systems, Minneapolis, Minn.).

ICAM-1 = experiment: ICAM1 expression activated by human rhinovirus in BEAS2B cells (cell-based ELISA); settings: for ICAM-1 expression induced by HRV16 inoculation (in words): 2 hr infection
Protocol: BEAS2B cells were infected with rhinovirus at an MOI of 5 and incubated for 2 hr at 33° C. with gentle shaking to enhance adsorption. Test compounds were added 2 hr before HRV infection and 2 hr after infection when residual extracellular HRV was washed out. The cells were then washed with PBS, fresh media was added and the cells were incubated for a further 72 hr. The supernatant was collected for assay of IL-8 concentrations using the Duoset ELISA development kit (R&D Systems, Minneapolis, Minn.). […] After appropriate incubation, cells were fixed with 4% formaldehyde in PBS. After quenching endogenous peroxidase by adding 0.1% sodium azide and 1% hydrogen peroxide, wells were washed with buffer (0.05% Tween in PBS: PBS-Tween). After incubation with the blocking solution (5% milk in PBS-Tween for 1 hr), cells were incubated with anti-human ICAM-1 antibody in 5% BSA PBS-Tween (1:500) overnight. Wells were then washed with PBS-Tween and incubated with the secondary antibody (HRP-conjugated anti-rabbit IgG, Dako Ltd.).

HRV16 [3] = experiment: HRV-16 infection, assessment of virus load (TCID50) in MRC5 cells; format: cell-based, human rhinovirus 16; settings: HRV16 0.1 MOI, 3 days
Protocol: Human rhinovirus RV16 (HRV16) was obtained from the American Type Culture Collection (Manassas, Va.). Viral stocks were generated by infecting Hela cells with HRV until 80% of the cells were cytopathic. MRC5 cells (human lung fibroblast, ATCC) were infected at 0.1 MOI (multiplicity of infection of 0.1) of HRV16 and incubated for 1 hr at 33° C. with gentle shaking to stimulate adsorption. The cells were then washed with PBS, fresh media (DMEM-5% FCS) was added and the cells were incubated for a further 72 hr. Supernatant (20 μL) was collected and 10-fold serial dilutions were prepared with DMEM containing 1% FCS. All titrations were performed by infecting confluent Hela cell monolayers with serially diluted supernatant (10^−1-10^−5) and then the cytopathic effect at each dilution 3 days after infection assessed by visual inspection. The cells were then stained with Crystal Violet for confirmation. The amount of virus required to infect 50% of Hela cells was calculated in each treatment as TCID50 (50% tissue culture infectious dose, U(unit)/20 μL). Compounds were added 2 hr before HRV16 infection and 1 hr after infection when non-infected HRV was washed out.

NFκB = experiment: HRV-16 induced activation of NFκB in BEAS2B cells; format: cell-based, human; settings: after 2 hr, at 10 MOI
Protocol: (§1) The cells were then collected by scraping on ice and nuclear extracts were prepared using a nuclear protein extraction kit (ActiveMotif, […], Belgium). NFκB activity and IRF3 activity were then measured using the TransAMTM NFκB (p65) ELISA kit or the TransAMTM IRF3 ELISA kit.

IRF-3 = experiment: HRV-16 induced activation of IRF-3 in BEAS2B cells; format: cell-based, human; settings: after 2 hr, at 10 MOI
Protocol: as §1

HRV16 mRNA = experiment: Transcripts of HRV16 by PCR in MRC5 cellular extract; format: cell-based, human rhinovirus 16; settings: MRC5 cells, HRV16 0.1 MOI, 3 days
Protocol: (§2) The MRC5 cells infected with virus (as described above) were used for viral RNA or mRNA detection. Total RNA extraction and reverse transcription were performed using TaqMan®Fast Cells-to-CT™ Kit (Ambion Inc. Austin Tex.). The gene transcript level of HRV16 (PrimerDesign Ltd, Southampton, UK), IFN (Applied Biosystems, Warrington, UK) and GAPDH, as a house-keeping gene (PrimerDesign Ltd, Southampton, UK) were quantified by real-time PCR using commercially available primers on a StepOnePlus™ RT-PCR system (Applied Biosystems, Warrington, UK). Variations in cDNA concentrations between different samples were corrected using the housekeeping gene, whereby the GAPDH concentration in each cDNA sample was calculated, and the cDNA diluted to contain equal amounts of GAPDH. Standard curves for GAPDH were generated by performing a dilution series of the untreated control cDNA. The relative amount of gene transcript present after different treatments was calculated and normalized by dividing the calculated value for the gene of interest by that of the house-keeping gene value.

HRV39 [4] = experiment: HRV-39 viral load in air-liquid interface cultured nasal epithelial cells; format: cell-based, human rhinovirus
Protocol: (§3) Primary nasal epithelial cells, cultured using an air-liquid interface, were purchased from Epithelix Sarl (Geneva, Switzerland). Fresh, warmed media (200 μL) containing either the test compound at the selected concentration or vehicle (DMSO; final concentration of 0.5%) was transferred to the apical chamber, and fresh, warmed media (700 μL) containing either the test compound at the selected concentration or vehicle (DMSO; final concentration of 0.5%) were transferred to the bottom chamber. After incubation for 2 hr, the media in the upper well was removed carefully. The following day, fresh, warmed media (200 μL) containing either the test compound at the selected concentration or vehicle (DMSO; final concentration of 0.5%) was transferred to the apical chamber again, and after incubation for 2 hr, the media was removed. On the third day, cells were treated again for 2 hr, and the media was removed. […] IL-8 concentrations were determined using a Duoset ELISA development kit (R&D Systems, Minneapolis, Minn.; FIG. 3B). […] The resultant cytopathic effects (CPE) were assessed by visual inspection 5 days after infection. The amount of virus required to infect 50% of Hela cells was calculated for each treatment and is reported as log[TCID50] […]

IL-8 [5] = experiment: HRV39-induced IL-8 release in air-liquid interface cultured nasal epithelial cells; format: cell-based, human
Protocol: as §3

interferon β = experiment: Interferon β induction (mRNA) by HRV16 in MRC-5 cells, PCR; format: cell-based, human
Protocol: as §2

HRV1B = HRV1B titres in MRC-5 cells; format: cell-based, human rhinovirus; settings: 0.1 or 10 MOI, 3 days, results not shown
HRV39 [6] = experiment: HRV39 titres in MRC-5 cells; format: cell-based, human rhinovirus; settings: 0.1 or 10 MOI, 3 days, results not shown
HRV16 [7] = experiment: HRV-16 infection, assessment of virus load (TCID50) in MRC5 cells; format: cell-based, human rhinovirus 16; settings: MRC5 cells, 0.1 MOI, total period of 84 hr
SYK = SYK (Homo sapiens, UniProt P43405); experiment: Kinase enzyme activity, FRET (Z-LYTE); format: biochemical; settings: 15 μM ATP
Protocol: (§4) The enzyme inhibitory activity of test compounds was determined by fluorescence resonance energy transfer (FRET) using synthetic peptides labelled with both donor and acceptor fluorophores (Z-LYTE, Invitrogen). For p38 MAPK alpha (MAPK14: Invitrogen), enzyme activity was evaluated indirectly by determining the activation/phosphorylation of the down-stream molecule, MAPKAP-K2. The p38 MAPK a protein was mixed with the test compound for 2 hr at RT. MAPKAP-K2 (Invitrogen), the FRET peptide (2 μM), which is a phosphorylation target for MAPKAP-K2, and ATP (10 μM) were then added to the enzymes/compound mixture and incubated for 1 hr. Development reagent was added and the mixture incubated for 1 hr before detection by fluorescence completed the assay protocol. The enzymes HCK, c-SRC, and SYK were evaluated in a similar fashion. Each enzyme was incubated with the test compound for 2 hr at RT. […] After the development reagent was added the mixtures were incubated for 1 hr and the assay protocol was completed by detection of the fluorescence levels in a microplate reader.

HCK = HCK (Homo sapiens, UniProt P08631); experiment: Kinase enzyme activity, FRET (Z-LYTE); format: biochemical; settings: 15 μM ATP
Protocol: as §4

p38MAPKα = target: T1, p38MAPKα (Homo sapiens, UniProt Q16539); experiment: Kinase enzyme activity, FRET (Z-LYTE); format: biochemical; settings: 10 μM ATP, via MAPKAP-K2
T1 construct: purchased Invitrogen
Protocol: as §4

T1 sequence (Q16539 whole entry): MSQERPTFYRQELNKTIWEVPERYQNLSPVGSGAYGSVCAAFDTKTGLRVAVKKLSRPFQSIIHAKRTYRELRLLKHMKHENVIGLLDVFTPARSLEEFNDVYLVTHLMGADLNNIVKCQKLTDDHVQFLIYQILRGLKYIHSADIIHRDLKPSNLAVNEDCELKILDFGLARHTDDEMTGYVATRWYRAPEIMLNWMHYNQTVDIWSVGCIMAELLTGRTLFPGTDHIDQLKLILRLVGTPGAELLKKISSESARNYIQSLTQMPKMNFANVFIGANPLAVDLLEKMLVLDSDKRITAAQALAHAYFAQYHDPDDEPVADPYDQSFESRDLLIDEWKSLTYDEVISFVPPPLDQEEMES
HCK, sequence (P08631 whole entry): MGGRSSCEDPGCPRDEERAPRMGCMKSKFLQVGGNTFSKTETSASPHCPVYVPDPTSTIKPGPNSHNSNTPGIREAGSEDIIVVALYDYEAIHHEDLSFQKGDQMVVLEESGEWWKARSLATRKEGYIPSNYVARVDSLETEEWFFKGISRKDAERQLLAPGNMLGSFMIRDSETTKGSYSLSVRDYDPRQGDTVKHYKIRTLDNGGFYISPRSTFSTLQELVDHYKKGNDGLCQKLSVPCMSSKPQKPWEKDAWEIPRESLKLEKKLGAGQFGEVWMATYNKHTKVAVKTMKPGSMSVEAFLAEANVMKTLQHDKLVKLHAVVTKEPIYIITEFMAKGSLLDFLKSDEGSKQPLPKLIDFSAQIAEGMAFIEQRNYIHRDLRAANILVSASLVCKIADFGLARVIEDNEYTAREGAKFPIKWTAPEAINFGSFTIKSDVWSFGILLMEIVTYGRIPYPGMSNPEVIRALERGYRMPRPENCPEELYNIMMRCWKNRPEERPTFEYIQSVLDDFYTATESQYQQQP

| IC50 (HCK) [nM] | IC50 (p38MAPKα) [nM] | Structure (SMILES) | IC50 (HRV16 [1]; 96 h, MRC5 cells, HRV16 MOI of 1, 4 days, read-out: HRV16-induced CPE IC50 Value) [nM] | IL-8 production in response to inoculation using HRV-16 (IL-8 [2]) | ICAM-1 expression induced by HRV16 inoculation (in words) (ICAM-1) | HRV-16 virus load (extracellular) (HRV16 [3]) | NFκB activation (HRV-16 induced) (NFκB) | IRF-3 activation (HRV-16 induced) (IRF-3) | HRV16 mRNA detected in cellular extracts (HRV16 mRNA) | HRV39 extracellular virus load (HRV39 [4]) | IL-8 production in response to inoculation using HRV39 (IL-8 [5]) | Interferon β induction by HRV16 (interferon β) | HRV1B titres (HRV1B) | HRV39 titres (HRV39 [6]) | Activity versus extracellular HRV16 load, delaying treatment for 24-36 hr (HRV16 [7]) | Activity versus extracellular HRV16 load, initial treatment (HRV16 [7]) | IC50 (HRV16 [1]; HRV16, MRC5, 96 h, read-out: HRV16-induced CPE IC50 Value (nM)) [nM] | IC50 (IL-8 [2]; Homo sapiens, BEAS-2B, BEAS2B cells, MOI of 5, 72 hr, read-out: HRV16-induced IL-8 IC50 Value) [nM] | IC50 (ICAM-1; Homo sapiens, BEAS-2B, HRV16 inoculation (2 hr infection), read-out: HRV16-induced ICAM1 IC50 Value) [nM] | IC50 (SYK) [nM] |
| --- | --- | --- | --- | --- | --- | --- | --- | --- | --- | --- | --- | --- | --- | --- | --- | --- | --- | --- | --- | --- |
|  |  | COCC(=O)Nc1cc(Oc2ccc(NC(=O)Nc3cc(C(C)(C)C)nn3-c3ccc(C)cc3)c3ccccc23)ccn1 [Reference Compound 2, N-(4-(4-(3-(3-tert-Butyl-1-p-tolyl-1H-pyrazol-5-yl)ureido)naphthalen-1-yloxy)pyridin-2-yl)-2-methoxyacetamide] | 4.7 | marked inhibition | remarkably potent inhibitory effect | potent inhibitor; also recorded: Marked inhibition | inhibited; also recorded: Marked inhibition | enhanced; also recorded: Activation | potent inhibitor | potent inhibitor | marked inhibition | marked increases | potent inhibitor | potent inhibitor | more sustained | marked activity |  |  |  |  |
|  |  | COCC(=O)Nc1cc(COc2ccc(NC(=O)Nc3cc(C(C)(C)C)nn3-c3ccc(C)cc3)c3ccccc23)ccn1 [Reference Compound 1, N-[4-({4-[3-(3-tert-Butyl-1-p-tolyl-1H-pyrazol-5-yl)ureido]naphthalen-1-yloxy}methyl)pyridin-2-yl]-2-methoxyacetamide, reference compound] |  | marked inhibition | no effect | modest effect; also recorded: Modest inhibition | some evidence of inhibition; also recorded: Modest inhibition | without effect; also recorded: No effect |  | little effect | marked inhibition |  | little or no discernable effect | little or no discernable effect | marked decrease in activity | marked activity | 340 | 1 | > 1690 | > 17800 |
| > 3310 | > 3310 | COc1ccc(-c2cc3nccn3c(Nc3ncccc3C(N)=O)n2)cc1OC [BAY 61-3606] |  |  |  |  | inhibited | tendency to inhibit |  |  |  |  |  |  |  |  |  |  |  |  |
